In US20080091140A1, “Cardiac Reperfusion Methods and Devices” (priority 2006, published 2008):
Marks after values point to notes of the source that are not given here.

Columns and labels:
Assay type in all cases: in vivo, Female juvenile domestic swine
[1] = system: acute regional myocardial ischemia and reperfusion (LAD occlusion); assay: Hemodynamic assessment (rate pressure product) in swine LAD ischemia-reperfusion with Trans Guide wire Therapy; settings: for rate pressure product (RPP), Pre-sacrifice: after 2 h reperfusion, chloramphenicol 10 mg TGT plus 40 mg/Kg IV just prior to reperfusion, p=0.02 vs saline
Method: (§1) Methods: Female juvenile pigs (n=14) were used. All animals received 250 mg of aspirin and 100 U/Kg of heparin IV. Tying the mid Left Anterior Descending Artery (“LAD”) after distal TGT (Trans Guide wire Therapy) wire placement induced acute myocardial ischemia. The TGT system consisted of a 0.014 inch nitinol torquable guide wire and removable stopcock. The distal 30 mm tip was flexible and radio-opaque. Immediately proximal to the tip were delivery holes to facilitate TGT delivery. TGT was delivered after 30 minutes of ischemia. The distal coronary vascular bed was visualized by injection with radiographic contrast (n=2) and Evans blue (n=2). […] Suture removal allowed 2 hours of reperfusion prior to sacrifice. Hemodynamics expressed as the heart rate blood pressure product (RPP) was assessed continuously. Echocardiographic LV ejection fraction (LVEF) was measured at baseline, end of ischemia (pre-TGT) and pre-sacrifice. Device success was defined as successful TGT delivery.
Animal Preparation: Female juvenile domestic swine, weight 30-50 kg, were studied. […] Anaesthesia was induced with an intramuscular injection of ketamine (20 mg/kg) followed by inhaled isoflurane (0.5-2.0%). After general anaesthesia the femoral artery was cannulated. A pulmonary artery cannula was positioned via the right internal jugular vein. All animals received 250 mg of IV aspirin and 100 U/Kg units of heparin intravenously to achieve an ACT above 250 s.
(§2) Interventional Coronary and Surgical Procedures: A 6F Hockey stick guide catheter cannulated the left main coronary artery. The TGT wire, flushed with heparin, was positioned in the distal left anterior descending (LAD) artery. After a midline sternotomy acute regional myocardial ischemia was induced by occluding the mid portion of the LAD with a surgical suture. Fluoroscopy ensured the suture was above the infusion ports of the TGT wire with distal TIMI 0 flow. Lidocaine was given as a bolus and infusion at the onset of ischemia and for the remainder of the experiment. TGT injection was performed at the end of a 30 minute ischemic period after which the suture was removed to allow reperfusion. Restoration of TIMI 3 flow was documented by cine-angiography. Animals were sacrificed after 2 hours of reperfusion and the hearts were harvested for immunohistochemistry.
Hemodynamic Assessment: There was continuous measurement of hemodynamic parameters. Cardiac output was measured immediately before and after ischemia and pre-sacrifice. Hemodynamic stability and contractility were supported medically by IV dopamine, and epinephrine to maintain MAP above 50 mmg. Boluses of atropine (1 mg) and lidocaine (100 mg) were given as appropriate for treatment of arrhythmias. […] Each administration of these drugs was recorded as 1 arbitrary unit. […]

[2] = system: acute regional myocardial ischemia and reperfusion (LAD occlusion); assay: Supportive drug therapy required during ischemia-reperfusion (arbitrary units); settings: chloramphenicol 10 mg TGT plus 40 mg/Kg IV
Method: as §1, §2
Hemodynamic Assessment: There was continuous measurement of hemodynamic parameters. Cardiac output was measured immediately before and after ischemia and pre-sacrifice. Hemodynamic stability and contractility were supported medically by IV dopamine, and epinephrine to maintain MAP above 50 mmg. Boluses of atropine (1 mg) and lidocaine (100 mg) were given as appropriate for treatment of arrhythmias. IV calcium and bicarbonate were given in appropriate doses during cardiopulmonary resuscitation. Each administration of these drugs was recorded as 1 arbitrary unit.
The latter was prepared as 10 mg in 0.5 cc of saline for TGT in addition to 40 mg/Kg IV. Injections were performed just prior to reperfusion.

[3] = system: acute regional myocardial ischemia and reperfusion (LAD occlusion); assay: Echocardiographic LV ejection fraction
Caspase 3 = assay: Western blotting of infarct border area: Caspase 3; settings: infarct border area after 2 h reperfusion, p=0.007 vs saline
Excerpt: as §2, with “immunohistochemistry. Western Blotting: After cardiac harvest the infarct border area was immediately frozen in liquid nitrogen. […] Supernatant protein concentration was measured using a BCA assay kit (Pierce Laboratories). […] After 3 TBST washings the immunocomplexes were developed using an enhanced HPO/luminol chemiluminescence reaction, and recorded photographically (Hyper film ECL; Amersham) by 10 s to 3 min exposure. […] Quantification was performed using scanning densitometry with image J software.” for “immunohistochemistry.”

apoptosis = assay: TUNEL staining for apoptosis in heart tissue sections; settings: heart tissue after 2 h reperfusion; non-discriminatory vs saline
[4] = system: acute regional myocardial ischemia and reperfusion (LAD occlusion); assay: Survival of the reperfusion period; settings: of 5 chloramphenicol TGT treated animals, to sacrifice at 2 h
Method: as §1
Interventional Coronary and Surgical Procedures: A 6F Hockey stick guide catheter cannulated the left main coronary artery. The TGT wire, flushed with heparin, was positioned in the distal left anterior descending (LAD) artery. After a midline sternotomy acute regional myocardial ischemia was induced by occluding the mid portion of the LAD with a surgical suture. […]

[5] = each administration recorded as 1 arbitrary unit, group sum

O=C(N[C@H](CO)[C@H](O)c1ccc([N+](=O)[O-])cc1)C(Cl)Cl [chloramphenicol]
rate pressure product (RPP), Pre-sacrifice [1]: 3720.0 (+/−510.2) | rate pressure product (RPP), Pre-sacrifice ([1]; listed as Chloramphenicol): 3720.0 +/− 510.2* | rate pressure product (RPP), Baseline ([1]; baseline, before ischemia and before TGT, chloramphenicol TGT group (n=5)): 3980.8 +/− 594.5 | rate pressure product (RPP), End of ischemia ([1]; end of 30 min ischemia, pre-TGT, chloramphenicol TGT group (n=5)): 2969.5 +/− 687.2 | supportive therapy: Atropine [2, 5]: 2.5 arbitrary units | supportive therapy: Bicarbonate [2, 5]: 1 arbitrary units | supportive therapy: Dopamine [2, 5]: 1 arbitrary units | supportive therapy: Epinephrine [2, 5]: 1 arbitrary units | supportive therapy: Lidocaine [2, 5]: 4.5 arbitrary units | supportive therapy: calcium [2, 5]: 0 arbitrary units | supportive therapy / intravenous inotrope support, mean ([2]; mean (+/-), p=0.028 vs saline): 1.67 (+/−1.6) arbitrary units | supportive therapy: Total ([2]; sum over all support drugs): 10 arbitrary units | LV ejection fraction, end of ischemia ([3]; after 30 minute ischemia, pre-TGT, chloramphenicol TGT group): 27.3%+/−3.8 | LV ejection fraction, pre-sacrifice (after reperfusion) ([3]; after 2 h reperfusion, chloramphenicol 10 mg TGT plus 40 mg/Kg IV, p<0.001 vs end of ischemia): 43.3%+/−11.4 | caspase-3 band intensity by densitometry (Caspase 3): 346±110 | TUNEL staining (apoptosis): weakly positive | animals that survived the period of reperfusion [4]: 5
